From patent US20250230171A1 (MOMA Therapeutics, Inc., priority 2023, published 2025)

Biological target: biotinylated Avi-POLθ[2-894] (Homo sapiens (Human), UniProt O75417)
Assay: POLθ ATPase assay (ADP-Glo)
Conditions: n=2; read-out: Biochemical ATPase ADPGlo IC50

Sequence of biotinylated Avi-POLθ[2-894] (O75417 2-894): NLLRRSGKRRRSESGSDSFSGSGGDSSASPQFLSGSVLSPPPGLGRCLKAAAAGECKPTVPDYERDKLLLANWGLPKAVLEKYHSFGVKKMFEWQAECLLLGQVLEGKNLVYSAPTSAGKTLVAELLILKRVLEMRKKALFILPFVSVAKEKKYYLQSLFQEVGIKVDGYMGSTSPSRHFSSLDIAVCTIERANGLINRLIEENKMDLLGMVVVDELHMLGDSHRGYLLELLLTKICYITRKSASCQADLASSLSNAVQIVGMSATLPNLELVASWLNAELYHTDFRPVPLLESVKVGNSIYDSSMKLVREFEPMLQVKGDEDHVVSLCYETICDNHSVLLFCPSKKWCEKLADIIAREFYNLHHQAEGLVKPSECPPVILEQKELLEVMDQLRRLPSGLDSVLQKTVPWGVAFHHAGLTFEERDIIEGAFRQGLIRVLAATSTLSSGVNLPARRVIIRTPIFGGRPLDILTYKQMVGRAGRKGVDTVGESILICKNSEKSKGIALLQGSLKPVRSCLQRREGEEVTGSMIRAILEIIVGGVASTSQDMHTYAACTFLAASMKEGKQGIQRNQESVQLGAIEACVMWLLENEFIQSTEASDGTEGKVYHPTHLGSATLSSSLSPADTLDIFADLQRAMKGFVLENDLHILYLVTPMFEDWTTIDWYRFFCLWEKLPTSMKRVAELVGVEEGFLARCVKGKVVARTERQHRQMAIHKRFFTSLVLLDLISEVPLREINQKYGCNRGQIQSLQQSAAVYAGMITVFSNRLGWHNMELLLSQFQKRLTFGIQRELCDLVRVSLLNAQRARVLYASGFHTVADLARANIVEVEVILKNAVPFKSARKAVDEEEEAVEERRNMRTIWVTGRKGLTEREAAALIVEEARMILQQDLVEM

| SMILES | IC50 |
| --- | --- |
| COc1cnc(Cl)cc1-c1cc(C)ncc1C(=O)Nc1nc2c(s1)CN(C(=O)c1ncn(C)n1)C2 [Example 50, 2′-chloro-5′-methoxy-6-methyl-N-(5-(1-methyl-1H-1,2,4-triazole-3-carbonyl)-5,6-dihydro-4H-pyrrolo[3,4-d]thiazol-2-yl)-[4,4′-bipyridine]-3-carboxamide] | 0.001 to 0.015 µM |
| COc1cnc(Cl)cc1-c1cc(C)ncc1C(=O)Nc1nc2c(s1)CN(C(=O)c1ccn(CC(F)F)n1)C2 [Example 51, 2′-chloro-N-(5-(1-(2,2-difluoroethyl)-1H-pyrazole-3-carbonyl)-5,6-dihydro-4H-pyrrolo[3,4-d]thiazol-2-yl)-5′-methoxy-6-methyl-[4,4′-bipyridine]-3-carboxamide] | 0.001 to 0.015 µM |
| COc1cnc(Cl)cc1-c1cc(C)ncc1C(=O)Nc1nc2c(s1)CN(C(=O)c1nn(C(F)F)cc1Cl)C2 [Example 55, 2′-chloro-N-(5-(4-chloro-1-(difluoromethyl)-1H-pyrazole-3-carbonyl)-5,6-dihydro-4H-pyrrolo[3,4-d]thiazol-2-yl)-5′-methoxy-6-methyl-[4,4′-bipyridine]-3-carboxamide] | 0.001 to 0.015 µM |
| COc1cnc(Cl)cc1-c1cc(C)ncc1C(=O)Nc1nc2c(s1)CN(C(=O)c1c(C(F)F)nn(C)c1F)C2 [Example 59, 2′-chloro-N-(5-(3-(difluoromethyl)-5-fluoro-1-methyl-1H-pyrazole-4-carbonyl)-5,6-dihydro-4H-pyrrolo[3,4-d]thiazol-2-yl)-5′-methoxy-6-methyl-[4,4′-bipyridine]-3-carboxamide] | 0.001 to 0.015 µM |
| COc1cnc(Cl)cc1-c1cc(C)ncc1C(=O)Nc1nc2c(s1)CN(C(=O)c1ncon1)C2 [Example 60, N-(5-(1,2,4-oxadiazole-3-carbonyl)-5,6-dihydro-4H-pyrrolo[3,4-d]thiazol-2-yl)-2′-chloro-5′-methoxy-6-methyl-[4,4′-bipyridine]-3-carboxamide] | 0.001 to 0.015 µM |
| COc1cnc(Cl)cc1-c1cc(C)ncc1C(=O)Nc1nc2c(s1)CN(C(=O)c1cn(C)nc1C(F)(F)F)C2 [Example 61, 2′-chloro-5′-methoxy-6-methyl-N-(5-(1-methyl-3-(trifluoromethyl)-1H-pyrazole-4-carbonyl)-5,6-dihydro-4H-pyrrolo[3,4-d]thiazol-2-yl)-[4,4′-bipyridine]-3-carboxamide] | 0.001 to 0.015 µM |
| CCn1cc(C(=O)N2Cc3nc(NC(=O)c4cnc(C)cc4-c4cc(Cl)ncc4OC)sc3C2)cn1 [Example 62, 2′-chloro-N-(5-(1-ethyl-1H-pyrazole-4-carbonyl)-5,6-dihydro-4H-pyrrolo[3,4-d]thiazol-2-yl)-5′-methoxy-6-methyl-[4,4′-bipyridine]-3-carboxamide] | 0.015 to 0.05 µM |
| COc1cnc(Cl)cc1-c1cc(C)ncc1C(=O)Nc1nc2c(s1)CN(C(=O)c1nn(C)cc1C)C2 [Example 65, 2′-chloro-N-(5-(1,4-dimethyl-1H-pyrazole-3-carbonyl)-5,6-dihydro-4H-pyrrolo[3,4-d]thiazol-2-yl)-5′-methoxy-6-methyl-[4,4′-bipyridine]-3-carboxamide] | 0.001 to 0.015 µM |
| CCn1ccc(C(=O)N2Cc3nc(NC(=O)c4cnc(C)cc4-c4cc(Cl)ncc4OC)sc3C2)n1 [Example 69, 2′-chloro-N-(5-(1-ethyl-1H-pyrazole-3-carbonyl)-5,6-dihydro-4H-pyrrolo[3,4-d]thiazol-2-yl)-5′-methoxy-6-methyl-[4,4′-bipyridine]-3-carboxamide] | 0.001 to 0.015 µM |
| COc1cnc(Cl)cc1-c1cc(C)ncc1C(=O)Nc1nc2c(s1)CN(C(=O)c1ncccc1O)C2 [Example 71, 2′-chloro-N-(5-(3-hydroxypicolinoyl)-5,6-dihydro-4H-pyrrolo[3,4-d]thiazol-2-yl)-5′-methoxy-6-methyl-[4,4′-bipyridine]-3-carboxamide] | 0.001 to 0.015 µM |
| COc1cnc(Cl)cc1-c1cc(C)ncc1C(=O)Nc1nc2c(s1)CN(C(=O)c1cccc(OC(F)F)n1)C2 [Example 72, 2′-chloro-N-(5-(6-(difluoromethoxy)picolinoyl)-5,6-dihydro-4H-pyrrolo[3,4-d]thiazol-2-yl)-5′-methoxy-6-methyl-[4,4′-bipyridine]-3-carboxamide] | 0.001 to 0.015 µM |
| COc1cnc(Cl)cc1-c1cc(C)ncc1C(=O)Nc1nc2c(s1)CN(C(=O)c1ccnn1C(C)C)C2 [Example 75, 2′-chloro-N-(5-(1-isopropyl-1H-pyrazole-5-carbonyl)-5,6-dihydro-4H-pyrrolo[3,4-d]thiazol-2-yl)-5′-methoxy-6-methyl-[4,4′-bipyridine]-3-carboxamide] | 0.001 to 0.015 µM |
| COc1cnc(Cl)cc1-c1cc(C)ncc1C(=O)Nc1nc2c(s1)CN(C(=O)c1c(C)nn(C)c1C)C2 [Example 76, 2′-chloro-5′-methoxy-6-methyl-N-(5-(1,3,5-trimethyl-1H-pyrazole-4-carbonyl)-5,6-dihydro-4H-pyrrolo[3,4-d]thiazol-2-yl)-[4,4′-bipyridine]-3-carboxamide] | 0.001 to 0.015 µM |
| COc1cnc(Cl)cc1-c1cc(C)ncc1C(=O)Nc1nc2c(s1)CN(C(=O)c1ncn(C(C)C)n1)C2 [Example 77, 2′-chloro-N-(5-(1-isopropyl-1H-1,2,4-triazole-3-carbonyl)-5,6-dihydro-4H-pyrrolo[3,4-d]thiazol-2-yl)-5′-methoxy-6-methyl-[4,4′-bipyridine]-3-carboxamide] | 0.015 to 0.05 µM |
| COc1cnc(Cl)cc1-c1cc(C)ncc1C(=O)Nc1nc2c(s1)CN(C(=O)c1cnn(C3CC3)c1)C2 [Example 80, 2′-chloro-N-(5-(1-cyclopropyl-1H-pyrazole-4-carbonyl)-5,6-dihydro-4H-pyrrolo[3,4-d]thiazol-2-yl)-5′-methoxy-6-methyl-[4,4′-bipyridine]-3-carboxamide] | 0.001 to 0.015 µM |
| COc1cnc(Cl)cc1-c1cc(C)ncc1C(=O)Nc1nc2c(s1)CN(C(=O)c1cnn(CC(F)(F)F)c1)C2 [Example 83, 2′-chloro-5′-methoxy-6-methyl-N-(5-(1-(2,2,2-trifluoroethyl)-1H-pyrazole-4-carbonyl)-5,6-dihydro-4H-pyrrolo[3,4-d]thiazol-2-yl)-[4,4′-bipyridine]-3-carboxamide] | 0.015 to 0.05 µM |
| COc1cnc(Cl)cc1-c1cc(C)ncc1C(=O)Nc1nc2c(s1)CN(C(=O)c1cnn(C(C)C)c1)C2 [Example 85, 2′-chloro-N-(5-(1-isopropyl-1H-pyrazole-4-carbonyl)-5,6-dihydro-4H-pyrrolo[3,4-d]thiazol-2-yl)-5′-methoxy-6-methyl-[4,4′-bipyridine]-3-carboxamide] | 0.001 to 0.015 µM |
| COc1cnc(Cl)cc1-c1cc(C)ncc1C(=O)Nc1nc2c(s1)CN(C(=O)c1cnn(C)c1C)C2 [Example 87, 2′-chloro-N-(5-(1,5-dimethyl-1H-pyrazole-4-carbonyl)-5,6-dihydro-4H-pyrrolo[3,4-d]thiazol-2-yl)-5′-methoxy-6-methyl-[4,4′-bipyridine]-3-carboxamide] | 0.015 to 0.05 µM |
| COc1cnc(Cl)cc1-c1cc(C)ncc1C(=O)Nc1nc2c(s1)CN(C(=O)c1cnn(C)c1C(F)F)C2 [Example 91, 2′-chloro-N-(5-(5-(difluoromethyl)-1-methyl-1H-pyrazole-4-carbonyl)-5,6-dihydro-4H-pyrrolo[3,4-d]thiazol-2-yl)-5′-methoxy-6-methyl-[4,4′-bipyridine]-3-carboxamide] | 0.001 to 0.015 µM |
| COc1cnc(Cl)cc1-c1cc(C)ncc1C(=O)Nc1nc2c(s1)CN(C(=O)c1cc(O)n(C)n1)C2 [Example 92, 2′-chloro-N-(5-(5-hydroxy-1-methyl-1H-pyrazole-3-carbonyl)-5,6-dihydro-4H-pyrrolo[3,4-d]thiazol-2-yl)-5′-methoxy-6-methyl-[4,4′-bipyridine]-3-carboxamide] | 0.015 to 0.05 µM |
| COc1cnc(Cl)cc1-c1cc(C)ncc1C(=O)Nc1nc2c(s1)CN(C(=O)[C@H]1CC[C@H](O)CC1)C2 [Example 96, 2′-chloro-N-(5-((1r,4r)-4-hydroxycyclohexane-1-carbonyl)-5,6-dihydro-4H-pyrrolo[3,4-d]thiazol-2-yl)-5′-methoxy-6-methyl-[4,4′-bipyridine]-3-carboxamide] | 0.001 to 0.015 µM |
| COc1cn2cncc2cc1-c1cc(C)ncc1C(=O)Nc1nc2c(s1)CN(C(=O)[C@H]1C[C@@H](OC(F)(F)F)C1)C2 [Example 97, 4-(6-methoxyimidazo[1,5-a]pyridin-7-yl)-6-methyl-N-(5-((1s,3s)-3-(trifluoromethoxy)cyclobutane-1-carbonyl)-5,6-dihydro-4H-pyrrolo[3,4-d]thiazol-2-yl)nicotinamide] | 0.001 to 0.015 µM |
| COc1cnccc1-c1cc(C)ncc1C(=O)Nc1nc2c(s1)CN(C(=O)c1ccccn1)C2 [Example 98, 3′-methoxy-6-methyl-N-(5-picolinoyl-5,6-dihydro-4H-pyrrolo[3,4-d]thiazol-2-yl)-[4,4′-bipyridine]-3-carboxamide] | 0.15 to 0.9 µM |
| COc1cnc(Cl)cc1-c1cc(C)ncc1C(=O)Nc1nc2c(s1)CC(N[C@H]1C[C@@H](O)C1)CC2 (stereo partly drawn) [Example 99, 2′-chloro-N-(6-(((1s,3s)-3-hydroxycyclobutyl)amino)-4,5,6,7-tetrahydrobenzo[d]thiazol-2-yl)-5′-methoxy-6-methyl-[4,4′-bipyridine]-3-carboxamide] | ≥ 0.9 µM |
| COc1cnc(Cl)cc1-c1cc(C)ncc1C(=O)Nc1nc2c(s1)CN(C(=O)c1ncccn1)C2 [Example 100, 2′-chloro-5′-methoxy-6-methyl-N-(5-(pyrimidine-2-carbonyl)-5,6-dihydro-4H-pyrrolo[3,4-d]thiazol-2-yl)-[4,4′-bipyridine]-3-carboxamide] | 0.001 to 0.015 µM |
| COc1cnc(Cl)cc1-c1cc(C)ncc1C(=O)Nc1nc2c(s1)CN(C(=O)[C@@H]1C[C@H]1CO)C2 [Example 102, 2′-chloro-N-(5-((1R,2R)-2-(hydroxymethyl)cyclopropane-1-carbonyl)-5,6-dihydro-4H-pyrrolo[3,4-d]thiazol-2-yl)-5′-methoxy-6-methyl-[4,4′-bipyridine]-3-carboxamide] | 0.001 to 0.015 µM |
| COc1cnc(Cl)cc1-c1cc(C)ncc1C(=O)Nc1nc2c(s1)CN(C(=O)[C@@H]1C[C@@H]1C(F)F)C2 [Example 104, 2′-chloro-N-(5-((1R,2S)-2-(difluoromethyl)cyclopropane-1-carbonyl)-5,6-dihydro-4H-pyrrolo[3,4-d]thiazol-2-yl)-5′-methoxy-6-methyl-[4,4′-bipyridine]-3-carboxamide] | 0.015 to 0.05 µM |
